Assay results published in patent US20250241906A1, “ANABOLIC DRUGS STIMULATING TYPE II COLLAGEN PRODUCTION FROM CHONDROCYTES OR THEIR PROGENITORS” (UNIVERSITY OF CENTRAL FLORIDA RESEARCH FOUNDATION, INC., priority 2022, published 2025).
“Also recorded” adds a separate entry of the source. Like-named read-outs stand apart in the source and are kept apart here.

Experiments:
KB cell line = conditions: cited from earlier work
[1] = test system: type II collagen promoter (COL2A1-Gaussia luciferase) in primary human chondrocytes; experiment: HuCol2gLuc 3D aggregate type II collagen promoter-driven Gaussia luciferase assay; assay type: cell-based; conditions: for stimulation of type II collagen production in the screen of natural products: NCI Natural Products Set V, 5 μM continuously, 22-day assay; for cumulative luminescence: validation
Experimental: Chondrogenic Culture. Human COL2A1-GLuc or uninfected cells were thawed and seeded in growth media on synoviocyte matrix at 6,000 cells/cm^2 and expanded to 90-100% confluence in physioxia. Cells were trypsinized (0.25% Trypsin/EDTA; Corning), resuspended in growth media (for monolayer culture) or chondrogenic differentiation media for 3D aggregates (93.24% High-Glucose DMEM (Gibco), 1% dexamethasone 10^−5M (Sigma), 1% ITS+premix (Becton-Dickinson), 1% Glutamax (Hyclone), 1% 100 mM Sodium Pyruvate (Hyclone), 1% MEM Non-Essential Amino Acids (Hyclone), 0.26% L-Ascorbic Acid Phosphate 50 mM (Wako), 0.5% Fungizone (Life Technologies) with TGF-β1 (Peprotech) and seeded as described below.
Generation and Maintenance of 3D aggregates. To generate 3D aggregates, cells were seeded at 50,000 cells per well (in 96-well cell repellent u-bottom plates, GreinerBio) and then centrifuged at 500 RCF, 5 min. For the initial drug screen, aggregates were cultured in basal chondrogenic media (1 ng/ml TGF-β1) alone, with DMSO (vehicle control) or 5 μM of the drug compounds from the NCI library (Natural Products V, NCI). For candidate validation and subsequent studies aggregates were cultured in basal chondrogenic media (10 ng/ml TGF-β1) alone, with DMSO (vehicle control) or compounds as indicated in the results. Aggregates were cultured for three weeks in physioxic conditions, culture medium was sampled and replaced three times a week with fresh medium. An OT-2 (Opentrons) python coded robotic pipette, programmed at an aspiration height of 2 mm from the bottom of the wells and aspiration rate of 40 μl/s was utilized for addition of compound, cell feeding, and media sampling for luciferase assay. After three weeks, cell aggregates were either fixed in neutral buffered formalin for histology or medium removed and aggregates frozen dry (−20° C.) for biochemical assays.
Luciferase Assay. Conditioned culture medium sampled from aggregates in 96-wells (20 μL/well) was assessed using a stabilized Gaussia Luciferase buffer mix (50 µl/well) for a final concentration of 0.09 M MES, 0.15M Ascorbic Acid, and 4.2 μM Coelenterazine in white 96-well plates. Luminescence was measured in a plate reader (25° C., relative light units (RLU), En Vision plate reader). An OT-2 (Opentrons) python coded robotic pipette was utilized for luciferase buffer addition to white plates (GreinerBio).

HuCol2gLuc aggregates [2] = experiment: Metabolic assay (resazurin) on HuCol2gLuc aggregates; assay type: cell-based, human; conditions: day 22
Experimental: Metabolic Assay (Resazurin). Metabolic activity was assessed on day 22 by adding resazurin to a final concentration of 50 μM to each well and incubating at physioxia for 3 hours. After three hours, media (120 μl) was transferred to a 96-well black plate (Greinerbio) and fluorescence read at an excitation of 535 nm and emission at 588 nm. At OT-2 (Opentrons) python-coded robotic pipette was used to add resazurin to cell plates as well as to transfer medium to black plates.

Plasmodium falciparum = conditions: cited from earlier work
butyrylcholinesterase = butyrylcholinesterase (Homo sapiens, UniProt P06276); conditions: cited from earlier work
Chain of butyrylcholinesterase (P06276 29-602): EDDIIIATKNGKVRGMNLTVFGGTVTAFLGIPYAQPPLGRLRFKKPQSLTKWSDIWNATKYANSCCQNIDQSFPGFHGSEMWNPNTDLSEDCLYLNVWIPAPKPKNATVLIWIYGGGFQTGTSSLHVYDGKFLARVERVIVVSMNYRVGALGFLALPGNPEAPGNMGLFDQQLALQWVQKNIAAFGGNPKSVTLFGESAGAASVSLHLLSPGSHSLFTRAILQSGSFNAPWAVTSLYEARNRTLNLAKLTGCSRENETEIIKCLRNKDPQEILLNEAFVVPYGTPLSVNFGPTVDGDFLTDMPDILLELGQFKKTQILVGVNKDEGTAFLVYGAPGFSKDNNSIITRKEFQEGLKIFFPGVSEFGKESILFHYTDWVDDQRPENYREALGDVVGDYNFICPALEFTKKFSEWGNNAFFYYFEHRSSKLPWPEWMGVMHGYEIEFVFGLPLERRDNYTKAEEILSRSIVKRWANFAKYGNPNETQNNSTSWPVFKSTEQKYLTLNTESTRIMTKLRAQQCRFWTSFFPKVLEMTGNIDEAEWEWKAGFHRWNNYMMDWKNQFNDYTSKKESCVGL

[3] = test system: kinase phosphorylation in primary human chondrocytes; experiment: Phospho-kinase array on primary human chondrocyte lysate; assay type: cell-based; conditions: donor 2, 24 h, vs DMSO
Experimental: Phospho-kinase Array. Primary human chondrocytes were seeded at 5×10^6 cells (2×10 cm adherent dish, Corning) in growth media and allowed to adhere overnight. Growth media was replaced with chondrogenic media supplemented with 1 ng/mL TGFβ1 with DMSO or with drug […]. Cells were treated for 24 h before processing according to the manufacturer's protocol (ARY003C, R&D Systems). This phospho-kinase array contains capture antibodies to measure relative levels of phosphorylation of 37 kinases on a nitrocellulose membrane. Signal intensity was quantified using ImageJ.

HuCol2gLuc aggregates [4] = experiment: Biochemical assays (DNA, GAG, total collagen) on HuCol2gLuc aggregates; assay type: cell-based, human
Experimental: Biochemical Assays. Aggregates frozen at day 22, were thawed with PBS, and digested with Papain (25 μg/ml, Sigma, P4762, in 2 mM cysteine; 50 mM sodium phosphate; 2 mM EDTA at a pH 6.5, 100 μl) at 65° C. overnight. Plates were sealed with a qPCR adhesive sealing film (USA Scientific), a silicone sheet, and steel plates clamped to the plate to prevent evaporation during digestion. Half of the digest (50 μl) was transferred to another plate and frozen for hydroxyproline assessment. In the remaining digest, papain was inactivated with 0.1M sodium hydroxide (NaOH, 50 μl) followed by NaOH neutralization (100 mM Na2HPO4, 0.1 N HCL, pH 1.82, 50 μl). To quantitate DNA content, samples of the neutralized digest (20 μl) were combined with buffered Hoechst dye (#33258, 667 ng/ml, phosphate buffer pH 8, 100 μl) and fluorescence measured at an excitation of 365 nm and emission of 460 nm. For GAG assessment, 1,9-Dimethyl-methylene blue solution (195 μl) was added to neutralized digests (5 μl) and absorbance measured at 595 nm and 525 nm. Readings were corrected by subtracting 595 nm reading from 525 nm. Micrograms of DNA and GAG were calculated using a Calf thymus DNA standard (Sigma) or Chondroitin Sulfate standard (Seikagaku Corp.), respectively.
For hydroxyproline (HP) quantification, the frozen digests (50 μl) were thawed at room temperature and incubated overnight at 105° C. with 6M hydrochloric acid (200 μl). Plates were sealed to prevent evaporation. Samples were then dried at 70° C. overnight with a hydroxyproline standard (Sigma). Copper sulfate (0.15 M, 10 μl) and NaOH (2.5 M, 10 μl) were added to each well and incubated at 50° C. for 5 minutes, followed by hydrogen peroxide (6%, 10 μl) for 10 minutes. Sulfuric acid (1.5 M, 40 μl) and Ehrlich's reagent (20 μl) were added and samples incubated at 70° C. for 15 minutes. Absorbance was measured at 505 nm. Micrograms of hydroxyproline were calculated using the standard. Total collagen was calculated by the following formula (μg of HP×7.6=μg Total Collagen).

Promoline [Drug 84]
cytotoxicity in the KB cell line (KB cell line): low cytotoxicity | stimulation of type II collagen production in the screen of natural products ([1]; listed as 84): stimulatory effects; also recorded: stimulatory throughout the experiment | stimulation of type II collagen production in the screen of natural products ([1]; listed as Promoline): stimulate type II collagen | EC50 ([1]; cumulative luminescence over 22 days): 3070 nM | EC50 ([1]; day 3, 0-10 μM, read-out: EC50 type II collagen driven-luminescence): 2460 nM | EC50 ([1]; day 10, 0-10 μM, read-out: EC50 type II collagen driven-luminescence): 2580 nM | stimulation of type II collagen production during the early stages ([1]; natural product screen, day 8 volcano plot): stimulate type II collagen production during the early stages | day 22 luminescence normalized to DMSO vehicle control ([1]; screen, 5 μM, 1 ng/ml TGF-β1): significant increase in luminescence | trend of luminescence over 22 days normalized to DMSO ([1]; screen, 5 μM, 1 ng/ml TGF-β1): increase over the control as early as day 3 with a sustained increase in expression over 22 days | cumulative luminescence ([1]; donor 1): no significant effect | cumulative luminescence ([1]; donor 2): significant increase | cytotoxicity (HuCol2gLuc aggregates [2]; 10 μM): cytotoxicity | resazurin fluorescence (metabolic activity) (HuCol2gLuc aggregates [2]; 0-10 μM): dose dependent decrease | anti-microbial activity against Plasmodium falciparum (Plasmodium falciparum): weak anti-microbial activity | inhibition of butyrylcholinesterase (butyrylcholinesterase): potent inhibitor | AKT 1/2/3 phosphorylation at T308 and S473 [3]: substantial decrease | p53 S15, STAT3 Y705 phosphorylation and HSP 60 [3]: less considerable decrease | phosphorylation of CREB, EGFR, and eNOS [3]: modest increase | glycosaminoglycan (GAG) content (HuCol2gLuc aggregates [4]; day 22, donor 1): not statistically significant | total collagen (HuCol2gLuc aggregates [4]; day 22, donor 1): no observable effect | DNA content (HuCol2gLuc aggregates [4]; day 22, donor 2, vs untreated): no change in DNA content | glycosaminoglycan (GAG) content (HuCol2gLuc aggregates [4]; day 22, donor 2, untreated 15 μg): decrease in GAG content | total collagen (HuCol2gLuc aggregates [4]; day 22, donor 2, untreated ~14 μg): ~21 µg | DNA content (HuCol2gLuc aggregates [4]; day 22, 10 μM): significant decrease
